Here are results for six molecules from patent US20240190920A1, “BECLIN 1-TARGETED STAPLED PEPTIDE AND PHARMACEUTICAL COMPOSITION” (Shenzhen Research Institute of the Hong Kong Polytechnic …, priority 2021, published 2024).

Where two headings read alike, the source gives them in different places. Bridge positions count the residues as written; N and C are the ends. Square brackets hold non-standard residues; d marks the D form. Ends that are not written are not given here. Peptide text beside a SMILES is read from it. R8 = C=CCCCCCC[C@@](C)(N)C(=O)O; S5 = C=CCCC[C@](C)(N)C(=O)O

One assay has as its system SKBR3 cells. Kind of assay: Flow cytometry with Annexin V FITC-PI staining. The format is cell-based. How it is done: FIG. 12 is a schematic diagram of the result showing the peptides based on strategy (i7-01s) scaffold induce cell death with necrotic features. Flow cytometry analysis with Annexin V FITC-PI staining is performed in SKBR3 cells after treatment of the indicated peptides for 24 hours.
The degree of cellular apoptosis and necrosis is assessed by flow cytometry following the standard protocol provided by the manufacturer. Briefly, SKBR3 cells after the indicated peptide treatment are harvested by trypsin, labelled with Annexin V and PI (Invitrogen), subjected to flow cytometer system (BD Accuri C6), and analyzed by BD Accuri C6 software. The cell populations can be distinguished by the staining of Annexin V/PI. Typically, cellular population in the lower left quadrant is live cells (Annexin V^−, PI^−), the lower right quadrant represents early apoptotic cells (Annexin V^+, PI^−), the upper right quadrant represents late apoptotic cells (Annexin V^+, PI^+), the upper left quadrant represents necrotic cells (Annexin V^−, PI^+).

Assay [1] has as its target T1, Beclin 1 coiled coil domain (Homo sapiens, UniProt Q14457).
T1 construct: the coiled coil domain of human Beclin 1 (residues 176-268); thioredoxin-6xHis fusion tag with HRV 3C protease cleavage site; made in house; host or cells: Escherichia coli BL21(DE3)
In words: Isothermal titration calorimetry (ITC) binding affinity. The note with it: 25° C., pH 7.4, Tat-fused peptide. How it is done:
The expression and purification of Beclin 1 coiled coil domain is performed as described previously. Briefly, the coiled coil domain of human Beclin 1 (residues 176-268) is cloned into the modified pET32a vector containing the human rhinovirus (HRV) 3C protease cleavage site and thioredoxin-6×His fusion tag. Recombinant protein for the Beclin1 coiled oil domain is expressed in Escherichia coli BL21(DE3) and purified by Ni^2+-NTA affinity chromatography (His Trap HP, GE Healthcare) first and followed by size-exclusion chromatography (Superdex 75, GE Healthcare).
ITC assays are carried out by MicroCal PEAQ-ITC Automated (Marvern) at 25° C. All designed peptides and purified protein for the Beclin 1 coiled coil domain are dialyzed into the buffer containing 50 mM Tris, 150 mM NaCl at pH 7.4. For each titration assay, the injection syringe is loaded with 40 μl of peptide and the cell is loaded with Beclin 1 coiled coil domain protein. Typically, titrations consist of 19 injections, and each injection is performed at a time interval of 180 seconds to ensure that the titration peak returns to the baseline. The titration data are analyzed using the MicroCal PEAQ-ITC Analysis software and fitted by the one-site binding model.
(In general: Isothermal titration calorimetry measures the heat released or taken up as one component is titrated into another.)

The next assay deals with HER2. In words: EGF-induced endolysosomal degradation of HER2, Western blot. The format is cell-based. Particulars: SKBR3, 2 μM, 200 ng/ml EGF. How it is done:
(§1) FIG. 9 is a schematic diagram of the result showing peptides based on (I7-01s) scaffold are potent inducers of endolysosomal trafficking. (a-c) Western blot to assess the HER2 and EGFR levels in SKBR3 cells. Cells are starved overnight and are treated with 200 ng/ml EGF respectively with vehicle control (a), 2 μM Tat-SP4 (b), 2 μM i7-01s-31 (c). (d & e) Time-dependent plots to quantify HER2 and EGFR degradation profiles after three independent experiments. The levels of HER2 (d) and EGFR (e) are normalized to the β-actin level at different time points and then further normalized to time 0, when the ligand EGF is added. Data are presented as mean±SEM (n=3).
In some embodiments, the Beclin 1-targeting stapled peptide provided by the present disclosure can effectively promote endolysosomal trafficking. As a scaffolding member of the PI3KC3 complex, Beclin 1 is essential for multiple PI3KC3-dependent processes including autophagy, endolysosomal trafficking and phagocytosis. To assess the efficacy of the newly designed peptides on the endolysosomal trafficking process, the ligand-induced endolysosomal degradation of cell surface receptors HER2 and EGFR is characterized by western blotting using SKBR3 breast cancer cell line that over-expresses both EGFR and HER2. […] In contrast, i7-01s-31 treatment at 2 μM results in significant reduction of HER2 level, with about 50% decrease at 15 hours post EGF stimulation, and about 70% decrease at 24 hours (as shown in FIGS. 9c & 9d). i7-01s-31 treatment also strongly promotes EGFR degradation, with approximately 60% reduction at 15 hours post EGF stimulation (as shown in FIGS. 9c & 9e).
Whole cell lysates are extracted using Laemmli sample buffer (62.5 mM Tris-HCl, pH 6.8, 2% SDS, 25% glycerol, 5% β-mercaptoethanol) supplemented with EDTA-free protease inhibitor cocktail (Roche). Protein concentration is determined using a standard Bradford assay before immunoblotting. Protein samples are separated by SDS-PAGE, transferred to a PVDF membrane (Millipore, USA), and incubated with the primary antibodies and HRP-conjugated secondary antibodies. […]

In another assay the test system is EGFR. In words: EGF-induced endolysosomal degradation of EGFR, Western blot. The assay is classed as cell-based. The note with it: SKBR3, 2 μM, 200 ng/ml EGF. The protocol: as §1
In some embodiments, the Beclin 1-targeting stapled peptide provided by the present disclosure can effectively promote endolysosomal trafficking. As a scaffolding member of the PI3KC3 complex, Beclin 1 is essential for multiple PI3KC3-dependent processes including autophagy, endolysosomal trafficking and phagocytosis. […]
Whole cell lysates are extracted using Laemmli sample buffer (62.5 mM Tris-HCl, pH 6.8, 2% SDS, 25% glycerol, 5% β-mercaptoethanol) supplemented with EDTA-free protease inhibitor cocktail (Roche). Protein concentration is determined using a standard Bradford assay before immunoblotting. […]
In general terms: A western blot detects proteins with antibodies after separation by electrophoresis.

T1 sequence (Q14457 176-268): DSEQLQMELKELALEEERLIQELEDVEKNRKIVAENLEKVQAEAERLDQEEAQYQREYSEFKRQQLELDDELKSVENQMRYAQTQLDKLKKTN

As to `COc1cccc2c1C(=O)c1c(O)c3c(c(O)c1C2=O)C[C@@](O)(C(=O)CO)C[C@@H]3O[C@H]1C[C@H](N)[C@H](O)[C@H](C)O1` [doxorubicin, reference compound], in the assay on SKBR3 cells (SKBR3, 24 hours), the “change of Annexin V positive cells (apoptosis)” value is “significant increase”.

Consider “Ace-RLLQR8LKTVLKS5RSV-Nme (Ac-RLLQ[R8]LKTVLK[S5]RSV; staple 5-12; not fully specified (C-terminus); printed as Ace-RLLQR8LKTVLKS5RSV-Nme) [i7-01s-30]”, for which the dissociation constant Kd result in assay [1] is on record as “No binding”.

As for `CC[C@H](C)[C@H](NC(=O)[C@H](CC(C)C)NC(=O)[C@H](C)NC(=O)[C@H](CCCNC(=N)N)NC(=O)[C@H](CCCNC(=N)N)NC(=O)[C@H](CCCNC(=N)N)NC(=O)[C@H](CCC(N)=O)NC(=O)[C@H](CCCNC(=N)N)NC(=O)[C@H](CCCNC(=N)N)NC(=O)[C@H](CCCCN)NC(=O)[C@H](CCCCN)NC(=O)[C@H](CCCNC(=N)N)NC(=O)CNC(=O)[C@H](Cc1ccc(O)cc1)NC(C)=O)C(=O)N[C@@H](CCC(N)=O)C(=O)N[C@]1(C)CCCCCCC=CCCC[C@@](C)(C(=O)N[C@@H](CCCNC(=N)N)C(=O)N[C@@H](CCCCN)C(=O)N[C@@H](CCCNC(=N)N)C(N)=O)NC(=O)[C@H](CCCCN)NC(=O)[C@H](CCC(=O)O)NC(=O)[C@H](C(C)C)NC(=O)[C@H](CC(=O)O)NC(=O)[C@H](CCC(=O)O)NC(=O)[C@H](CCC(N)=O)NC1=O` [i7-01s-54, Ace-ALIQR8QEDVEKS5RKR-Nme] (Ac-YGRKKRRQRRRALIQ[R8]QEDVEK[S5]RKR-NH2; staple 16-23), in assay [1] (read-out: Kd), the dissociation constant Kd came out at 311 ± 54.6 µM.

As for “Ace-RLIQR8REDVEKS5RKR-Nme (Ac-RLIQ[R8]REDVEK[S5]RKR; staple 5-12; not fully specified (C-terminus); printed as Ace-RLIQR8REDVEKS5RKR-Nme) [i7-01s-36]”, in assay [1], the Kd result is recorded as “No binding”.

For “Ace-RFIQR8LEVVIKS5RSV-Nme (Ac-RFIQ[R8]LEVVIK[S5]RSV; staple 5-12; not fully specified (C-terminus); printed as Ace-RFIQR8LEVVIKS5RSV-Nme) [i7-01s-34]”, the Kd entry in assay [1] is “No binding”.

Turning to `CC[C@H](C)[C@H](NC(=O)[C@H](CC(C)C)NC(=O)[C@H](CCCNC(=N)N)NC(=O)[C@H](CCCNC(=N)N)NC(=O)[C@H](CCCNC(=N)N)NC(=O)[C@H](CCCNC(=N)N)NC(=O)[C@H](CCC(N)=O)NC(=O)[C@H](CCCNC(=N)N)NC(=O)[C@H](CCCNC(=N)N)NC(=O)[C@H](CCCCN)NC(=O)[C@H](CCCCN)NC(=O)[C@H](CCCNC(=N)N)NC(=O)CNC(=O)[C@H](Cc1ccc(O)cc1)NC(C)=O)C(=O)N[C@@H](CO)C(=O)N[C@@H](CCC(=O)O)C(=O)N[C@@H](CC(C)C)C(=O)N[C@]1(C)CCCCCCC=CCCC[C@@](C)(C(=O)N[C@@H](C)C(N)=O)NC(=O)[C@H](CCCNC(=N)N)NC(=O)[C@H](CCC(N)=O)NC(=O)[C@H](CCCCN)NC(=O)[C@H](CCC(=O)O)NC(=O)[C@H](CCCNC(=N)N)NC(=O)[C@H](CC(=O)O)NC1=O` [Tat-SP4, Ac-[Tat]-RLISEL(R8)DREKQR(S5)A-NH2, reference compound] (Ac-YGRKKRRQRRRRLISEL[R8]DREKQR[S5]A-NH2; staple 18-25), in the assay with HER2, the HER2 degradation profile result is “does not show any noticeable impact”. In addition, the EGFR degradation profile result in the assay with EGFR is on record as “does not show any noticeable impact”. The PI positive cells entry in the assay on SKBR3 cells (SKBR3, 10 μM, 24 hours) is given as “approximately 8%”. Also, in the assay on SKBR3 cells (SKBR3, 24 hours), the “change of Annexin V positive cells (apoptosis)” value was “no increase” and the “change of PI positive staining cells (dead cells)” value is “significant increase”.

As usually defined, the Kd is the free concentration of one partner at which half of the binding sites on the other are occupied at equilibrium, for simple one-to-one binding.
